Assay results: patent publication US7670631B2, “Method for the prevention of malaria infection of humans by hepatocyte growth factor antagonists” (ALFAMA—Investigação e Desenvolvimento de Produtos …, priority 2003, dated 2010)

What was measured:
ISIF/HGF secretion = ISIF/HGF secretion by HepG2 cells after wounding (infection susceptibility assay); assay type: cell-based; conditions: HepG2 cells treated, washed, incubated with P. berghei sporozoites to generate conditioned medium
Method: HepG2 cells were treated with Brefeldin-A (BFA), an inhibitor of protein transport to the Golgi vesicles that blocks constitutive secretion in eukaryotic cells. BFA treated cells, and untreated control cells, were then washed and incubated with P. berghei sporozoites to generate conditioned medium. […] The effect of BFA was dose-dependent. Supernatants of mechanically wounded HepG2 cells were collected after various time periods of incubation. ISIF/HGF levels, as determined by the infection susceptibility assay (FIG. 2c) and western blot analysis, (FIG. 2d) increased with time. The ISIF activity was abolished by the addition of neutralizing anti-HGF antibodies (FIG. 2c).

P. berghei sporozoites [1] = assay: Genistein effect on hepatic infection with Plasmodium berghei sporozoites in vitro (EEF count in HepG2 cells); assay type: cell-based; conditions: Genistein at 25 μM, 24 h with P. berghei sporozoites
Method: HepG2 cells were maintained in DMEM 10% FCS, 1 mM glutamine. P. berghei sporozoites were obtained from dissection of infected Anopheles stephensi mosquito salivary glands. P. berghei sporozoites ([…]) were added to monolayers of 2×10^5 HepG2 cells (in the presence or not of Genistein) for 24 h before fixation and staining with anti-EEF mAb (2E6), followed by anti-mouse IgG-FITC antibodies. Infection was quantified by counting the number of EEFs per coverslip.

HGF receptor = assay: ISIF activity of medium conditioned by primary hepatocytes; assay type: cell-based
Method: (§1) Supernatant were generated from cultures containing the mouse hepatoma cells Hepa1-6 and P. yoelii sporozoites (mH/Py conditioned media). To detect ISIF activity, fresh hepatoma cells were incubated with mH/Py conditioned media for different periods of time. Cells were then washed and incubated with P. yoelii sporozoites. Infection was examined 24 h later by staining the exo-erythrocytic forms of the parasite (EEFs). As controls, we used Hepa1-6 cells pre-incubated for identical periods of time with fresh medium before addition of P. yoelii sporozoites. Pre-treatment of hepatocytes with mH/Py conditioned medium increases the level of infection (FIG. 1a). […] Since sporozoites are obtained by dissection of infected mosquito salivary glands, we also tested conditioned media that were obtained from cultures containing hepatoma cells and material of salivary glands from uninfected mosquitoes. Medium conditioned in this way was ineffective (FIG. 1b).
Primary hepatocytes were obtained by liver perfusion. […] Cells that have been traversed by sporozoites can be detected using a cell-impermeant fluorescent tracer macromolecule that only penetrates into wounded cells. P. yoelii sporozoites were incubated with Hepa1-6 cells in the presence of fluorescent-labelled dextran before staining for HGF. […]

MET = molecular target: T1, MET (Homo sapiens, UniProt P08581); conditions: cited from earlier work
T1 construct: host or cells: MLP-29 cells, GTL-16 gastric carcinoma cells and NIH3T3 fibroblasts are named in the same paragraph

[2] = in vivo; cited from earlier work
Plasmodium berghei = conditions: cited from earlier work
P. berghei sporozoites [3] = assay: Infection susceptibility (ISIF) assay: HepG2 cells pre-incubated with growth factors or conditioned medium plus antibodies before P. berghei sporozoites; assay type: cell-based, Plasmodium berghei; conditions: HepG2 cells pre-incubated before addition of P. berghei sporozoites
Method: as §1
To test whether ISIF activity was mediated by known growth factor, two well-characterized growth factors known to be released after injury were tested: basic fibroblast growth factor (bFGF) and hepatocyte growth factor (HGF). HepG2 cells were pre-incubated with human HGF or bFGF before addition of P. berghei sporozoites. As positive and negative controls, cells were incubated with hH/Pb conditioned medium or fresh medium, respectively. […]

T1 sequence (P08581 25-1390): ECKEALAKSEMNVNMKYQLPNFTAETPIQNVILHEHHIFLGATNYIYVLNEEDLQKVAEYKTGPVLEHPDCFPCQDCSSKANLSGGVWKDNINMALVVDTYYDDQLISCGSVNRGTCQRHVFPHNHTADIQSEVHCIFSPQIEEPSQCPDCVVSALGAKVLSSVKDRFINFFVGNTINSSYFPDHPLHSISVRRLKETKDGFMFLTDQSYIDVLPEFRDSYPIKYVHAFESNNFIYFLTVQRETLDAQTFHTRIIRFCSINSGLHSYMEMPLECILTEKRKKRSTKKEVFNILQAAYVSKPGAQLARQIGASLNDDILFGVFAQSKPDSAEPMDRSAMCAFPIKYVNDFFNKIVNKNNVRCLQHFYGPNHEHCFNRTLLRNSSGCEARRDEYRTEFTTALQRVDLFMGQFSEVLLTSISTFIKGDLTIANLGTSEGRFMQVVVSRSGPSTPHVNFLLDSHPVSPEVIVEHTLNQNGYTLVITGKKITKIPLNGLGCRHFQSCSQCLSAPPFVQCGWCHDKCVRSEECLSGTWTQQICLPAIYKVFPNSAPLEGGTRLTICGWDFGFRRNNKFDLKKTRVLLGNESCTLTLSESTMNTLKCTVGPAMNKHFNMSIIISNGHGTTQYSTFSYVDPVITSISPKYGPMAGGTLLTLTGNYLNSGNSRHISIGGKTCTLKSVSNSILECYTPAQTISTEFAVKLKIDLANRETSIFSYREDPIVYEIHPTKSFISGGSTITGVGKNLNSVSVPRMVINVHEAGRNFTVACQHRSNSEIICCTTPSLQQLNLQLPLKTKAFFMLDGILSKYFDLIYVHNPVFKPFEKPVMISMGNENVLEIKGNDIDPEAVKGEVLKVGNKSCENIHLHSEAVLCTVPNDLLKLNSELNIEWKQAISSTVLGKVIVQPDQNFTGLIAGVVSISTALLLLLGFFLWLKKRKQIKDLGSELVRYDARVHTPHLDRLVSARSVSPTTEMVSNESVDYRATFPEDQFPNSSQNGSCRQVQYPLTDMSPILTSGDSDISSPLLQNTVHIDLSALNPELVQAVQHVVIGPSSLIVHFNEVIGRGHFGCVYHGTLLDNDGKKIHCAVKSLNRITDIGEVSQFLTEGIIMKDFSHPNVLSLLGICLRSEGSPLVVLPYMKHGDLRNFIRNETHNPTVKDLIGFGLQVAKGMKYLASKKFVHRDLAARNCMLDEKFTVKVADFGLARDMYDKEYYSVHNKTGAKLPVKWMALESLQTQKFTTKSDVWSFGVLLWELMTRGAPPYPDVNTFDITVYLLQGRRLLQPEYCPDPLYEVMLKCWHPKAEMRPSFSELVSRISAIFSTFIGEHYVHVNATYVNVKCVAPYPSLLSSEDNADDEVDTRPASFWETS

C[C@H]1CCC/C=C/[C@@H]2C[C@H](O)C[C@H]2[C@H](O)/C=C/C(=O)O1 [BFA, Brefeldin-A]
ISIF/HGF secretion (ISIF/HGF secretion): inhibits ISIF/HGF secretion

O=c1c(-c2ccc(O)cc2)coc2cc(O)cc(O)c12 [Genistein, genistein]
reduction in infection (number of EEFs per coverslip) (P. berghei sporozoites [1]): approximately 75%

COC(=O)[C@@]1(O)C[C@H]2O[C@]1(C)n1c3ccccc3c3c4c(c5c6ccccc6n2c5c31)C(=O)NC4 [K252a]
ISIF activity (HGF receptor): abolished ISIF activity | concentration inhibiting Met mediated signals (MET): nanomolar concentrations

OC(c1cc(C(F)(F)F)nc2c(C(F)(F)F)cccc12)C1CCCCN1 (stereo not shown) [Mefloquine, mefloquine]
elimination half life [2]: two to three

COc1cc(NC(C)CCCN)c2ncccc2c1 (stereo not shown) [Primaquine, primaquine]
half life [2]: very short

C[C@@H]1C[C@H]2O[C@@H]2/C=C\C=C\C(=O)Cc2c(Cl)c(O)cc(O)c2C(=O)O1 [radicicol]
activity against Plasmodium berghei in mice (Plasmodium berghei): moderately active

COc1cc(C)c2c(Oc3cccc(C(F)(F)F)c3)c(OC)cc(NC(C)CCCN)c2n1 (stereo not shown) [tafenoquine]
terminal half life [2]: about 14 days

HGF: hepatocyte growth factor, ligand of the receptor protein tyrosine kinase Met
effect on infection of pre-incubation of HepG2 cells with growth factor (P. berghei sporozoites [3]): increased infection to a greater extent than the hH/Pb conditioned medium

bFGF: basic fibroblast growth factor
effect on infection of pre-incubation of HepG2 cells with growth factor (P. berghei sporozoites [3]): ineffective
